Data reported in patent publication US7723070B2, “Overexpression of aminoacyl-tRNA synthetases for efficient production of engineered proteins containing amino acid analogues” (California Institute of Technology, priority 2000, dated 2010).

System: B834(DE3) or CAG18491 hosts with pQE15/pREP4 or pQE15-MRS/pREP4
Experiment: Translational activity: mDHFR synthesis, statements covering several bacterial hosts (with pQE15 or pQE15-MRS)
Type: cell-based, E. coli
Details: amino acids at 60 mg/liter, both bacterial hosts
Method: Methionine analogues were synthesized via alkylation of diethylacetamidomalonate, as previously described (As described in Example I, infra; J. C. M. van Hest, D. A. Tirrell, FEBS Lett. 1998, 428, 68-70). Cultures of B834(DE3)/pQE15-MRS/pREP4 or B834(DE3)/pQE15/pREP4 or CAG18491/pQE15-MRS/pREP4 or CAG18491/pQE15/pREP4 in M9AA media were grown to an optical density of 0.90, and the cells were sedimented by centrifugation. The M9AA medium was prepared by supplementing sterile M9 medium with […] of each of the amino acids, 1 mM MgSO4, 0.2 wt % glucose, 1 mg/ml thiamine chloride, and […] calcium chloride. The antibiotics ampicillin and kanamycin were added at concentrations of 200 mg/l and 35 mg/l, respectively.
Cells were washed three times with M9 salts and resuspended to an optical density of 0.90 in M9 test media containing 19 amino acids plus 1) neither methionine nor analogue (negative control); 2) methionine (60 mg/liter, positive control); or 3) an analogue of interest (60 mg/liter). To test the effect of increasing the level of supplementation of the analogues, a set of experiments was also conducted in which the medium was supplemented with 500 mg/liter of methionine or the amino acid analogue. Expression of mDHFR was induced by addition of 0.4 mM isopropyl β-D-thiogalactopyranoside (IPTG), and protein synthesis was monitored after 4.5 hours.

Row | SMILES | target protein mDHFR in SDS-PAGE
1 | C#CCC(N)C(=O)O (stereo not drawn) [Analogue 13, propargylglycine] | not observed
2 | C=CCOC[C@H](N)C(=O)O (racemic) [Analogue 10, o-allylserine] | not observed
3 | NC(CCCC(F)(F)F)C(=O)O (racemic) [Analogue 6, DL-6,6,6-trifluoro-2-amino hexanoic acid] | not observed
